Patent US11013726B2 (Arbutus Biopharma Corporation, priority 2016, dated 2021)

The compounds below were run on HBsAg (assay: HBsAg assay). Details: Hepatitis B virus, HepG2.2.15, 144 h, read-out: sAg EC50, μM, HepG2.2.15 cells, day 6.
Format: cell-based, hepatitis B virus
Procedure: Inhibition of HBsAg was determined in HepG2.2.15 cells. Cells were maintained in culture medium containing 10% fetal calf serum, […], Glutamine, penicillin/streptomycin. Cells were seeded in 96-well collagen-coated plate at a density of 30,000 cells/well. Serially diluted compounds were added to cells next day at the final DMSO concentration of 0.5%. Cells were incubated with compounds for 2-3 days, after which medium was removed. Fresh medium containing compounds was added to cells for additional 3-4 days. At day 6 after exposure of compounds, supernatant was collected, the HBsAg immunoassay (microplate-based chemiluminescence immunoassay kits, CLIA, Autobio Diagnosics Co., Zhengzhou, China, Catalog # CL0310-2) was used to determine the level of HBsAg according to manufactory instruction. Dose-response curves were generated and the EC50 value (effective concentrations that achieved 50% inhibitory effect) were determined using XLfit software. In addition, cells were seeded at a density of 5,000 cells/well for determination of cell viability in the presence and absence of compounds by using CellTiter-Glo reagent (Promega). Tables 1-3 show EC50 values obtained by the HBsAg assay for selected compounds.

Row | SMILES | EC50 [µM]
1 | COc1cc2c(nc1OC)-c1cc(=O)c(C(=O)O)cn1C(C(C)C)C2 (stereo not shown) [Example 23, 6-Isopropyl-2,3-dimethoxy-10-oxo-5,10-dihydro-6H-pyrido[1,2-h][1,7]naphthyridine-9-carboxylic acid] | 0.019
2 | COCCCOc1cc2c(cc1Cl)-c1cc(=O)c(N(C)C(=O)OC(C)(C)C)cn1[C@H](C(C)C)CO2 [Example 141, Tert-butyl (R)-(2-chloro-7-isopropyl-3-(3-methoxypropoxy)-11-oxo-6,7-dihydro-11H-benzo[f]pyrido[1,2-d][1,4]oxazepin-10-yl)(methyl)carbamate] | 1
3 | CCOP(=O)(O)c1cn2c(cc1=O)-c1cc(Cl)c(OCCCOC)cc1CC2C(C)(C)C (stereo not shown) [Example 106, Ethyl hydrogen (6-(tert-butyl)-10-chloro-9-(3-methoxypropoxy)-2-oxo-6,7-dihydro-2H-pyrido[2,1-a]isoquinolin-3-yl)phosphonate] | 7.2
4 | COCCCOc1cc2c(nc1OC)-c1cc(=O)c(C#N)cn1[C@H](C(C)C)C2 [Example 113, (S)-6-Isopropyl-2-methoxy-3-(3-methoxypropoxy)-10-oxo-5,10-dihydro-6H-pyrido[1,2-h][1,7]naphthyridine-9-carbonitrile] | 1
5 | COc1cc2c(cc1Cl)-c1cc(=O)c(C(=O)O)cn1[C@@H](CC(C)C)CO2 (single isomer, unassigned) [Example 6] | 3.8
6 | COCCCOc1cc2c(cc1Cl)-c1cc(=O)c(C(=O)O)cn1[C@H](CCO)CO2 [Example 43, (R)-2-Chloro-7-(2-hydroxyethyl)-3-(3-methoxypropoxy)-11-oxo-6,7-dihydro-11H-benzo[f]pyrido[1,2-d][1,4]oxazepine-10-carboxylic acid] | 0.35
7 | COCCCOc1cc2c(nc1Cl)-c1cc(=O)c(C(=O)O)cn1C1C(CCC1(C)C)O2 (stereo not shown) [Example 81, 6-Chloro-7-(3-methoxypropoxy)-12,12-dimethyl-3-oxo-9a,11,12,12a-tetrahydro-3H,10H-cyclopenta[b]dipyrido[1,2-d:2′,3′-f][1,4]oxazepine-2-carboxylic acid] | 0.011
8 | COc1cc2c(cc1Cl)-c1cc(=O)c(C(=O)O)cn1C1CCC1O2 (stereo not shown) [Example 13, 11-Chloro-10-methoxy-2-oxo-5a,6,7,7a-tetrahydro-2H-benzo[f]cyclobuta[b]pyrido[1,2-d][1,4]oxazepine-3-carboxylic acid] | 1.8
9 | COCCCOc1cc2c(nc1C1CC1)-c1cc(=O)c(C(=O)O)cn1[C@H](C(C)(C)C)CO2 [Example 67, (R)-7-(Tert-butyl)-2-cyclopropyl-3-(3-methoxypropoxy)-11-oxo-6,7-dihydro-11H-dipyrido[1,2-d:2′,3′-f][1,4]oxazepine-10-carboxylic acid] | 0.0009
10 | COCCCOc1cc2c(cc1Cl)-c1cc(=O)c(NS(=O)(=O)C(F)(F)F)cn1C(C(C)(C)C)C2 (stereo not shown) [Example 128, N-(6-(Tert-butyl)-10-chloro-9-(3-methoxypropoxy)-2-oxo-6,7-dihydro-2H-pyrido[2,1-a]isoquinolin-3-yl)-1,1,1-trifluoromethanesulfonamide] | 4.7
11 | COCCCOc1cc2c(cc1Cl)-c1cc(=O)c(N3C(=O)CCC3=O)cn1C(C(C)(C)C)C2 (stereo not shown) [Example 125, 1-[6-Tert-butyl-10-chloro-9-(3-methoxypropoxy)-2-oxo-6H,7H-pyrido[2,1-a]isoquinolin-3-yl]pyrrolidine-2,5-dione] | 12
12 | CC(C)[C@@H]1COc2cc(OCCCN3CCOCC3)c(Cl)cc2-c2cc(=O)c(C(=O)O)cn21 [Example 40, (R)-2-Chloro-7-isopropyl-3-(3-morpholinopropoxy)-11-oxo-6,7-dihydro-11H-benzo[f]pyrido[1,2-d][1,4]oxazepine-10-carboxylic acid] | 0.14
13 | CCOP(=O)(OCC)c1cn2c(cc1=O)-c1cc(Cl)c(OCCCOC)cc1CC2C(C)(C)C (stereo not shown) [Example 105, Diethyl (6-(tert-butyl)-10-chloro-9-(3-methoxypropoxy)-2-oxo-6,7-dihydro-2H-pyrido[2,1-a]isoquinolin-3-yl)phosphonate] | 6.1
14 | CCOC(=O)c1cn2c(cc1=O)-c1nc(OC)ccc1[C@H]2C(C)C [Example 173, (R)-ethyl-5-isopropyl-2-methoxy-9-oxo-5,9-dihydropyrido[2,3-a]indolizine-8-carboxylate] | 8.6
15 | COc1cc2c(cc1Cl)-c1cc(=O)c(C(=O)O)cn1C(COC(C)C)CO2 (stereo not shown) [Example 11, 2-Chloro-7-(isopropoxymethyl)-3-methoxy-11-oxo-6,7-dihydro-11H-benzo[f]pyrido[1,2-d][1,4]oxazepine-10-carboxylic acid] | 12
16 | COCCCOc1cc2c(nc1OC)-c1cc(=O)c(C(=O)O)cn1[C@H](C(C)C)CC2 [Example 168, (S)-7-Isopropyl-2-methoxy-3-(3-methoxypropoxy)-11-oxo-5,6,7,11-tetrahydrodipyrido[1,2-a:2′,3′-c]azepine-10-carboxylic acid] | 0.071
17 | COCCCOc1cc2c(cc1Cl)-c1cc(=O)c(P(=O)(O)O)cn1C(C(C)(C)C)C2 (stereo not shown) [Example 107, (6-(Tert-butyl)-10-chloro-9-(3-methoxypropoxy)-2-oxo-6,7-dihydro-2H-pyrido[2,1-a]isoquinolin-3-yl)phosphonic acid] | 2.5
18 | COCCCOc1cc2c(cc1Cl)-c1cc(=O)c(NC(=O)OCC(C)(C)C)cn1C(C(C)(C)C)C2 (stereo not shown) [Example 124, Neopentyl (6-(tert-butyl)-10-chloro-9-(3-methoxypropoxy)-2-oxo-6,7-dihydro-2H-pyrido[2,1-a]isoquinolin-3-yl)carbamate] | 16
19 | CC(C)(C)C1Cc2cc3c(cc2-c2cc(=O)c(C(=O)O)cn21)OCCCO3 (stereo not shown) [Example 90, 6-(Tert-butyl)-2-oxo-6,7,11,12-tetrahydro-2H,10H-[1,4]dioxepino[2,3-g]pyrido[2,1-a]isoquinoline-3-carboxylic acid] | 0.095
20 | CC(C)[C@@H]1COc2cc(OCC(F)(F)F)c(C3CC3)cc2-c2cc(=O)c(C(=O)O)cn21 [Example 54, (R)-2-Cyclopropyl-7-isopropyl-11-oxo-3-(2,2,2-trifluoroethoxy)-6,7-dihydro-11H-benzo[f]pyrido[1,2-d][1,4]oxazepine-10-carboxylic acid] | 0.012
21 | COc1nc2c(s1)CC(C(C)C)n1cc(C(=O)O)c(=O)cc1-2 (stereo not shown) [Example 87, 5-Isopropyl-2-methoxy-9-oxo-4,9-dihydro-5H-thiazolo[4,5-a]quinolizine-8-carboxylic acid] | 3.8
22 | COCCCOc1cc2c(nc1OC)-c1cc(=O)c(-c3ncn[nH]3)cn1[C@H](C(C)C)C2 [Example 116, (S)-6-Isopropyl-2-methoxy-3-(3-methoxypropoxy)-9-(1H-1,2,4-triazol-5-yl)-5,6-dihydro-10H-pyrido[1,2-h][1,7]naphthyridin-10-one] | 0.009
23 | COCCCOc1cc2c(cc1Cl)-c1cc(=O)c(NC(=O)OC)cn1C(C(C)(C)C)C2 (stereo not shown) [Example 122, Methyl N-[6-tert-butyl-10-chloro-9-(3-methoxypropoxy)-2-oxo-6H,7H-pyrido[2,1-a]isoquinolin-3-yl]carbamate] | 17
24 | COc1cc2c(cn1)-c1cc(=O)c(C(=O)O)cn1C(C(C)C)C2 (stereo not shown) [Example 86, 6-isopropyl-3-methoxy-10-oxo-5,10-dihydro-6H-pyrido[2,1-a][2,7]naphthyridine-9-carboxylic acid] | 1
25 | COCCCOc1cc2c(nc1Cl)-c1cc(=O)c(C(=O)O)cn1[C@H](C(C)C)CO2 [Example 68, (R)-2-Chloro-7-isopropyl-3-(3-methoxypropoxy)-11-oxo-6,7-dihydro-11H-dipyrido[1,2-d:2′,3′-f][1,4]oxazepine-10-carboxylic acid] | 0.017
26 | CCOCCOc1cc2c(cc1C)-c1cc(=O)c(C(=O)O)cn1[C@H](C(C)C)CO2 [Example 55, (R)-3-(2-Ethoxyethoxy)-7-isopropyl-2-methyl-11-oxo-6,7-dihydro-11H-benzo[f]pyrido[1,2-d][1,4]oxazepine-10-carboxylic acid] | 0.13
27 | Cc1cc2c(cc1OCC(C)C)OC[C@@H](C(C)C)n1cc(C(=O)O)c(=O)cc1-2 [Example 51, (R)-3-Isobutoxy-7-isopropyl-2-methyl-11-oxo-6,7-dihydro-11H-benzo[f]pyrido[1,2-d][1,4]oxazepine-10-carboxylic acid] | 0.015
28 | COCCOc1cc2c(cc1Cl)-c1cc(=O)c(C(=O)O)cn1[C@@H](C(C)C)CO2 (single isomer, unassigned) [Example 31] | 0.8

Same assay, conditions: read-out: sAg EC50; HepG2.2.15 cells, day 6

Row | SMILES | EC50 [µM]
29 | CC(C)(C)C1Cc2cc3c(cc2-c2cc(=O)c(C(=O)O)cn21)OCC1(COC1)CO3 (single isomer, unassigned) [Example 95, 6′-(Tert-butyl)-2′-oxo-6′,7′-dihydro-2′H,10′H,12′H-spiro[oxetane-3,11′-[1,4]dioxepino[2,3-g]pyrido[2,1-a]isoquinoline]-3′-carboxylic acid] | 0.08
30 | COCCCOc1cc2c(nc1Cl)-c1cc(=O)c(C(=O)O)cn1C1C(CCC1(C)C)O2 (single isomer, unassigned) [Example 83, 6-Chloro-7-(3-methoxypropoxy)-12,12-dimethyl-3-oxo-9a,11,12,12a-tetrahydro-3H,10H-cyclopenta[b]dipyrido[1,2-d:2′,3′-f][1,4]oxazepine-2-carboxylic acid] | 1
31 | CC(C)(C)C1Cc2cc3c(cc2-c2cc(=O)c(C(=O)O)cn21)OCCCO3 (single isomer, unassigned) [Example 92, 6-(Tert-butyl)-2-oxo-6,7,11,12-tetrahydro-2H,10H-[1,4]dioxepino[2,3-g]pyrido[2,1-a]isoquinoline-3-carboxylic acid] | 0.011
